Experimental data from patent US9234902B2, “Method for monitoring anticoagulant therapy” (priority 2011, dated 2016).

Legend:
FII, FVII and FX = assay: Sequential PT-INR (PP-INR) measurements over 49 days in a single patient starting on warfarin; format: in vivo, human; conditions: FIG. 6, grey zone
Method: Both the Quick prothrombin time (PT) and the Owren's prothrombin time (prothrombin proconverting time, P&P test) were measured on patient samples. The STA-R coagulation analyzer was used (Diagnostika Stago, Asnieres, France). The PT was done using the STA-Néoplastine® CI plus as coagulation reagent, with and ISI value of 1.3 and the P&P was done using the STA-SPA 50 reagent with ISI of 1.01 (both from Diagnostika Stago). The P&P reagent is similar to the PT reagent but also consists of added absorbed bovine plasma as a source of coagulation factor V and fibrinogen and, thus, is only sensitive to the activity of FII, FVII and FX. The P&P percentages were calculated from a standard curve based on serially diluted pooled plasma in Owren's buffer. The INR is calculate as described above.
In FIG. 6 we show sequential measurements of Fiix-INR, PP-INR, FII, FVII and FX over 49 days in a single patient starting on warfarin. The amount of coagulation factors (percentage) is shown on the left Y-axis and the INR value on the right Y-axis. The change in INR in relation to changes in concentrations of the VKD factors can be derived from the graph. […]

FII and FX = assay: Sequential Fiix-INR (Fiix-PT) measurements over 49 days in a single patient starting on warfarin; format: in vivo, human; conditions: FIG. 6
Text: The test results may be obtained as clotting time, clotting time ratio or any other endpoint measuring thrombin generation or fibrin formation. […] Since this is a variant of the prothrombin time we call it “Fiix-prothrombin time” or Fiix-PT.
In our new method, which we call Fiix-method, a test plasma sample (patient plasma) is mixed with normal plasma that has been immunodepleted of both FII and FX (Fiix-deficient plasma). Using such mixture, by adding thromboplastin and calcium, a prothrombin time variant can be measured that is only sensitive to FII and FX, ie Fiix-PT. In the Fiix-PT the proportions of test plasma to Fiix-deficient plasma can be in the range from 1:1 to 1:20 parts, preferably in the range from 1:2 to 1:10 (see below).
Based on the experiments shown in FIG. 4 we decided to measure the Fiix-PT by mixing […] of a 1:7 dilution of test plasma with 25 uL of Fiix-deficient plasma (i.e. final proportion 1 part test plasma to 2.2 parts Fiix-deficient plasma). We then measured “Fiix-PT” in samples from 38 patients on stable warfarin therapy and calculated the international normalized ratio (“Fiix-INR”). […] Corresponding results were found when Fiix-INR was correlated with Quick PT based INR(PT-INR, data not shown).
In FIG. 6 we show sequential measurements of Fiix-INR, PP-INR, FII, FVII and FX over 49 days in a single patient starting on warfarin. […]

Q: Which results are given for `CC(=O)CC(c1ccccc1)c1c(O)c2ccccc2oc1=O` (centres unmarked) [warfarin]?
A: day on which the patient has reached an acceptable anticoagulated range by PT-INR (FII, FVII and FX): 3 days; day on which the patient reaches an acceptable INR value (acceptable anticoagulation) by Fiix-INR (FII and FX): 5 days
